From US5217877A, “Process for the preparation of α-glucosidase inhibitor, pradimicin Q” (Bristol-Myers Squibb Company, priority 1991, dated 1993)
Values after ≈ are worked out from the molar mass of the structure shown.

How the values were obtained:
[1] = biological target: T1, α-glucosidase (Sigma G-5003) (Saccharomyces cerevisiae, UniProt P53341); assay: α-Glucosidase inhibitory activity (p-nitrophenyl-α-D-glucopyranoside hydrolysis); assay type: biochemical; settings: for IC50 / IC50 (α-glucosidase inhibitory activity): 37° C., 15 minutes, pH 6.8, 0.7 mM p-nitrophenyl-α-D-glucopyranoside
T1 construct: purchased Sigma G-5003
Method: Forty μl of α-glucosidase (Sigma G-5003, #11 U/mg protein) (0.1 mg/ml in 100 mM phosphate buffer, pH 6.8=[…]) for tests (or the buffer for the control), 950 μl of 0.7 mM p-nitrophenyl-α-D-glucopyranoside (Sigma N1377), and 10 μl of the assay compound (various concentrations dissolved in DMSO) were mixed and incubated at 37° C. for 15 minutes. To the reaction mixture, 1.0 ml of 0.2N NaOH and then 1.0 ml of n-butanol were added and voltex-mixed. […] IC50 was determined from a standard curve of p-nitrophenol released when the assay was run without the test compound (0% inhibition) and when the assay was run without the enzyme (100% inhibition).

mouse melanoma B16 cells = assay: cells; settings: B16, read-out: cytotoxic activity IC50

T1 sequence (P53341 whole entry): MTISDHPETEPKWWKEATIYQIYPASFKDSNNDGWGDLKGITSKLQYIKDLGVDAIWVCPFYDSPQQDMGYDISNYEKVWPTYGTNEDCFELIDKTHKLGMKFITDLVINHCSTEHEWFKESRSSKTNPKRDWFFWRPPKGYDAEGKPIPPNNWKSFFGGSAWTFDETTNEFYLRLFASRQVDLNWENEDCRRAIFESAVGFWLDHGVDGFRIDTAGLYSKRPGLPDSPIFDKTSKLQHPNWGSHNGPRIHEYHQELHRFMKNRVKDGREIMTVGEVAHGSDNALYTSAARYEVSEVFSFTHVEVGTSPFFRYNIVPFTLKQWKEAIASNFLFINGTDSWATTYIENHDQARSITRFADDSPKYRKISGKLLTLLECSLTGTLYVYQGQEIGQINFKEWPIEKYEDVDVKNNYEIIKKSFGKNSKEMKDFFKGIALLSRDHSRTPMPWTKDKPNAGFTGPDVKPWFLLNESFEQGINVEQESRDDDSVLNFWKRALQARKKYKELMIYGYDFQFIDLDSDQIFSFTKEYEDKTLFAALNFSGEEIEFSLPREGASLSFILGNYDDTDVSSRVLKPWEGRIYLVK

Compound | IC50 [1] [µM] | α-glucosidase inhibitory activity (in words) [1] | IC50 (α-glucosidase inhibitory activity) [1] [mg/L] | IC50 (mouse melanoma B16 cells) [mg/L]
COc1cc(O)c2c(c1)C(=O)c1c(O)c3c(c(OC)c1C2=O)C(O)C(O)c1cc(C)c(C(=O)NC(C)C(=O)O)c(O)c1-3 (stereo not drawn) [Benanomicin C, benanomicin C] | 107 | – | – | –
COc1cc(O)c2c(c1)C(=O)c1c(cc3c(c1O)-c1c(cc(C)c(C(=O)N[C@H](CO)C(=O)O)c1O)[C@H](O[C@@H]1O[C@H](C)[C@H](N(C)C)[C@H](O[C@@H]4OC[C@@H](O)[C@H](O)[C@H]4O)[C@H]1O)[C@H]3O)C2=O [N,N-dimethylpradimicin FA-2] | – | no α-glucosidase inhibitory activity | > 100 | –
CNC1C(C)OC(OC2c3cc(C)c(C(=O)NC(C)C(=O)O)c(O)c3-c3c(cc4c(c3O)C(=O)c3cc(OC)cc(O)c3C4=O)C2O)C(O)C1OC1OCC(O)C(O)C1O (stereo not drawn) [Pradimicin A] | > 119 | no α-glucosidase inhibitory activity | – | –
CN[C@@H]1[C@H](O[C@@H]2O[C@H](CO)[C@H](O)[C@H](O)[C@@H]2O)[C@@H](O)[C@H](O[C@@H]2c3cc(C)c(C(=O)N[C@H](C)C(=O)O)c(O)c3-c3c(cc4c(c3O)C(=O)c3cc(OC)cc(O)c3C4=O)[C@@H]2O)O[C@H]1C [Pradimicin L] | – | no α-glucosidase inhibitory activity | > 100 | –
Cc1cc2c(c(O)c1C(=O)O)-c1c(O)c3c(c(O)c1CC2O)C(=O)c1c(O)cc(O)cc1C3=O (stereo not drawn) [Pradimicin Q, pradimicin Q] | 6.46 | – | – | 75 (≈ 162 µM)
